1 compound from article PMC6078311, “Localization and functional characterization of the pathogenesis-related proteins Rbe1p and Rbt4p in Candida albicans” (PLoS ONE, 2018) can be followed below.

The target of assay [1] is T1, Rbe1p (Candida albicans, UniProt Q59ZX3).
T1 construct: gene RBE1; codon-optimized His-tagged Rbe1p expressed in Escherichia coli
In words: in vitro [3H]-cholesterol radioligand saturation binding with purified protein; competition with unlabeled cholesterol.

Assay [2] concerns the target T2, Rbt4p (Candida albicans, UniProt Q5AB48).
T2 construct: gene RBT4; codon-optimized His-tagged Rbt4p expressed in Escherichia coli
Described as above.

T2 sequence (Q5AB48 20-358): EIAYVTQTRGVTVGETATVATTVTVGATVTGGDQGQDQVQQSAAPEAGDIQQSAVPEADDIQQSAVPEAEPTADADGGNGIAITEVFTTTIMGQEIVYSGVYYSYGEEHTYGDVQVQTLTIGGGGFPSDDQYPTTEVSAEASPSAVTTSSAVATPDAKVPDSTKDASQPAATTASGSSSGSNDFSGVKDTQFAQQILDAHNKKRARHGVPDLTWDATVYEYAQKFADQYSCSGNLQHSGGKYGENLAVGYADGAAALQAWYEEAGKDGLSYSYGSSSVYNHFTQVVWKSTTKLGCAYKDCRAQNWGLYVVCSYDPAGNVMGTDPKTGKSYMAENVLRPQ
T1 sequence (Q59ZX3 20-271): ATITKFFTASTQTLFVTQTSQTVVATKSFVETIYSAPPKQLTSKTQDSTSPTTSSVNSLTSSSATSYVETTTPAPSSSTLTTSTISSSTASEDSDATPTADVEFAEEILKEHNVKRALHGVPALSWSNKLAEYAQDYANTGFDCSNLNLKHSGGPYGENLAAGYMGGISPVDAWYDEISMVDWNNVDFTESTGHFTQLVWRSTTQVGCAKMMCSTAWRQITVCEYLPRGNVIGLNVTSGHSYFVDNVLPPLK

As to `CC(C)CCC[C@@H](C)[C@H]1CC[C@H]2[C@@H]3CC=C4C[C@@H](O)CC[C@]4(C)[C@H]3CC[C@]12C` [cholesterol], the Kd – broadly, the free concentration of one partner at which half of the binding sites on the other are occupied at equilibrium, for simple one-to-one binding – was approximately 5.78 µM in assay [1] and approximately 3.3 µM in assay [2].
